Results from the NIST ThermoML archive (doi:10.1021/acs.jced.5b00200).
Values joined by “and” are separate entries in the source; they are usually repeats but may differ in a detail not shown here. Equal entries are not always repeated. Numbers after ± are expanded uncertainties.

Experiment: wn = mass fraction of the nth substance listed
Conditions: 297.15 K, 100 kPa, Liquid, Alternating current cell with electrodes

Structure (SMILES)	electrical conductivity (w1 = 0.097) [S/m]	electrical conductivity (w1 = 0.047)
CC(C)O [propan-2-ol] + O	0.0001	
CC(=O)[O-].[Na+] [sodium ethanoate] + O		0.0438 S/m and 0.0441 S/m
CC(=O)[O-].[NH4+] [ammonium acetate] + O		0.0479 ± 0.004 S/m
CC(=O)[O-].[K+] [potassium ethanoate] + O		0.0484 S/m and 0.0479 S/m
CCC(C)O (stereo not given) [butan-2-ol] + O	0.0001	
